{
  "source": "paper PMC12428754",
  "about": "“Testing Strategies for Metabolite-Mediated Neurotoxicity” (International Journal of Molecular Sciences, 2025)",
  "key": {"LUHMES cells [1]": {"tested_on": "LUHMES cells", "test": "MitoMet (UKN4b) neurite outgrowth assay", "assay_type": "cell-based, human", "details": "for IC25: benchmark response 25%, neurite area, 24 h exposure, three independent experiments, read-out: BMC25 neurite outgrowth", "method": "Figure 1 (A) A strategy scheme to assess metabolite-mediated hazard in NAMs used for neurotoxicity or developmental neurotoxicity. Parent and metabolite compounds are tested separately in the respective assay. This strategy is applicable when there is prior knowledge of metabolite formation. A decision rule based on the relative toxicities (X) of the parent and metabolite may be applied to decide whether next-generation risk assessment (NGRA) should be applied to the metabolite. The value of X may be defined according to the problem formulation and the NAM used. (B) An assay scheme of the neurite outgrowth assay used here for exemplification: Proliferating LUHMES cells were replated one day before differentiation was initiated (day −1). After two days (day 2) in differentiation medium, the cells were replated into assay format (96-well). At this point, neurite growth was re-initiated. The cells were treated with toxicants 1 h after replating. Neurite outgrowth and viability were determined 24 h later, using automated high content imaging. (C) Comparison of neurite outgrowth of cultures treated with bromethalin and desmethyl-bromethalin one exemplary parent/metabolite pair (chemical structures shown). […] The curves are based on data from three independent experiments and were fitted using a four-parameter Hill function. Data points shown are arithmetic means of data from independent experiments ±SEM. In each independent experiment, the technical replicates were measured and averaged. A benchmark response (BMR) of 25% was used as specified in the detailed assay description, and the respective benchmark concentration (BMC25) was determined. […] (D) Microscopic images of calcein-stained LUHMES cells. Similar images are used for neurite quantification. Treatment with 40 nM of the parent (left) or metabolite (right). The scale bar in orange corresponds to 50 µm. […] It stands under panel C and to the right of panel D, and was assigned to C.\n(§1) The MitoMet neurite outgrowth assay was performed as previously described. In brief, all cell culture dishes and flasks were pre-coated with 50 μg/mL poly-l-ornithine (PLO) and 1 μg/mL fibronectin. Proliferating LUHMES cells were maintained in AdvDMEM/F12 containing L-glutamine (2 mM), N2 supplement (1x), and FGF (40 ng/mL). For pre-differentiation, the cells were replated at a density of 46,000 cells/cm^2 one day prior to the induction of differentiation (defined as the day of differentiation, Day −1). Differentiation was initiated by exchanging the culture medium for AdvDMEM/F12 supplemented with L-glutamine (2 mM), N2 supplement (1x), dibutyryl-cAMP (1 mM), tetracycline (1 µg/mL), and GDNF (2 ng/mL). After two days of differentiation (Day 2), the cells were replated (100,000 cells/cm^2) into 96-well plates. The final assay medium consisted of glucose-free AdvDMEM/F12 supplemented with galactose (18 mM), L-glutamine (2 mM), and tetracycline (1 µg/mL). One hour after replating, the cells were treated with a 10× concentrated stock solution of the test compound. Neurite outgrowth and viability were determined 24 h later, using automated high content imaging.\n(§2) The image acquisition and analysis were conducted according to established protocols. The cells were stained with Hoechst H-33342 (1 µg/mL) to visualise nuclei and calcein-AM (1 µM) to label viable cell structures. Fluorescent images were acquired using an automated imaging system."}, "[2]": {"tested_on": "hiPSC-derived immature human dorsal root ganglia neuron-like cells", "test": "PeriTox (UKN5a) neurite outgrowth assay", "assay_type": "cell-based", "details": "for parent/metabolite potency ratio (BMC25): listed under the metabolite", "method": "PeriTox assay was performed as previously described. In brief, cryopreserved hiPSC-derived immature human dorsal root ganglia neuron-like cells were thawed and plated at a density of 100,000 cells/cm^2 into matrigel-coated 96-well plates. The cells were cultured in 75 µL PeriTox differentiation medium (PDM) consisting of 25% KSR-S and 75% N2-S media supplemented with 1.5 µM CHIR99021, 1.5 µM SU5402, and 5 µM DAPT (KSR-S: knockout DMEM with 15% serum replacement, 1x Glutamax, 1x nonessential amino acids, and […] beta-mercaptoethanol; N2-S: DMEM/F12, with 2 mM Glutamax, 0.1 mg/mL apotransferrin, 1.55 mg/mL glucose, 25 µg/mL insulin, […] putrescine, 30 nM selenium, and 20 nM progesterone). After one hour, 25 µL PDM with 4x concentrated serial dilutions of the test compounds was added to the cells.\nas §2, with “system. An image analysis algorithm detected nuclei to define somatic regions, which were then excluded from the total calcein-positive area. The remaining signal was quantified as the neurite area.” for “system.”\nIn the first step, matched technical replicates were averaged. […] For visualisation, GraphPad Prism 9 was used. […]\nSupplementary Figure S1: Comparison of data from the MitoMet test and the PeriTox test. A) Exposure scheme for the PeriTox test (UKN5a):\nFor testing, cryopreserved hiPSC-derived immature human dorsal root ganglia neuron-like cells were thawed and plated into 96-well plates. Cells were treated with toxicants at one h after plating. Neurite outgrowth and viability were determined at 24 h later, using automated high content imaging. B) Benchmark concentrations (BMC25) were calculated as a measure for “onset of toxicity” for the MitoMet (UKN4b; as described in Figure 1) and UKN5a assay. If no BMC could be determined, the highest tested concentration was used as surrogate endpoint. The arrows indicate the sensitivity shifts of parent vs metabolite in the respective assay. […]"}, "[3]": {"tested_on": "hiPSC-derived neural crest-like cells", "test": "cMINC (UKN2) neural crest cell migration assay", "assay_type": "cell-based, human", "details": "listed under the metabolite", "method": "Figure 6 The transfer of the metabolisation module to the neural crest cell migration assay (cMINC). (A) A schematic of the cMINC (circular migration of neural crest cells) assay. The cells were seeded around a central stopper to create a cell-free circular area. Migration was initiated 24 h after seeding by removing the stopper. This is defined as the day of migration (DoM) 0. On DoM 1, the cells were exposed to toxicants. After 24 h of exposure, both cell migration and viability were quantified, using automated high-content imaging. (B) Compatibility of the metabolisation module (preincubation with 500 µg/mL S9 at 37 °C for 2 h) with the cMINC assay: The setup was as described in Figure 4 and as exemplified in Figure 5A. No compound was added (solvent control). The S9 mixture (at 500 µg/mL ± NADPH) was added to the normal cell culture medium of the cMINC assay (so that the addition was 10% of the total volume). Data are from three independent experiments. (C,D) The concentration-dependent effects on migration were evaluated for metabolite mixtures generated from bromethalin (C) or chlorfenapyr (D). […] The arrows indicate the direction of sensitivity shift between NADPH-dependent and -independent metabolite mixtures, with accompanying fold change values. The concentrations are given as nominal concentrations of the parent compound. Abbreviations: n.s., not significant. TEXT PRINTED IN THE PICTURE: (C) Bromethalin: x30 | (D) Chlorfenapyr: x15\nThe MINC assay was performed as previously described. Briefly, 96-well plates were prepared by inserting a central 2 mm diameter stopper (Platypus Technologies, Madison, WI, USA) into pre-coated wells with a composite poly-L-ornithine (PLO; 10 µg/mL), fibronectin (1 µg/mL), and laminin (1 µg/mL) matrix. […] After a further 24 h (DoM 2), cell migration and viability were assessed. […] High content imaging was performed, and data were analysed using the RingAssay V1 software (http://invitrotox.uni-konstanz.de/, accessed on 3 February 2025). […]"}, "LUHMES cells [4]": {"tested_on": "LUHMES cells", "method": "Figure 4 A strategy to incorporate metabolic competence into in vitro DNT testing methods. (A) A schematic overview of a sequential metabolism and testing approach. The “metabolisation module” uses hepatic post-mitochondrial fractions (S9) to generate metabolite mixtures in the presence or absence of cofactors (NADPH, glucose-6-phosphate, MgCl2). These metabolite mixtures are tested in the “testing module” in a concentration-dependent manner after serial pre-dilutions. Metabolite mixtures are added as a fraction of 10% to the media volume of the “testing module”. The testing module may be a cell-based neurotoxicity (NT) or developmental neurotoxicity (DNT) assay, such as the neurite outgrowth or migration assay. Here, the Mito-Met neurite outgrowth assay, as in Figure 1, was used. […] The curves represent data from three independent experiments and were fitted using a four-parameter Hill function. […] The data represent three independent experiments. The indicated concentrations are “testing module” concentrations.\nTo further evaluate our modular pre-activation strategy for identifying metabolite-mediated hazard, we tested a broader panel of compounds. For each compound (parent), a single concentration was used in the metabolisation module. The metabolite mixtures were generated in the absence or presence of NADPH. These metabolite mixtures were serially diluted and assessed using the MitoMet neurite outgrowth assay. As a measure of potency, EC25 values were determined, and potency ratios were calculated to compare the effects of NADPH-dependent versus NADPH-independent metabolism.\nFigure 5 The effect of NADPH-dependent hepatic metabolism on the DNT of selected compounds. (A) A strategy scheme to assess the effect of metabolic enzymes on the outcome of cell-based DNT assays. Metabolite mixtures are generated using the NADPH-(in)dependent metabolic activity of S9. NADPH-independent metabolism is shown in green (light grey). NADPH-dependent metabolism is shown in red (dark grey). […] (B–F) The concentration-dependent effect of metabolite mixtures on neurite outgrowth was measured as in Figure 1, with the following modifications: red-fluorescent-protein (RFP)-expressing LUHMES cells were used. As the assay endpoint, the RFP fluorescence of neurites was used instead of calcein staining. The curves represent data from three independent experiments and were fitted using a four-parameter Hill function. From this, an EC25 was calculated. Bold numbers indicate the fold changes between EC25 values of the NADPH-(in)dependent metabolite mixtures, with the direction of the arrow reflecting the shift in sensitivity. Note that the x-axes indicate nominal concentrations of parent compounds. […] Similar images were used for neurite quantification. The right image (red frame) of the pairs was obtained with NADPH. The black arrowheads above the curves indicate the experimental conditions used to record images. The scale bar in orange corresponds to 50 µm.\nas §1, with “plates.” for “plates. The final assay medium consisted of glucose-free AdvDMEM/F12 supplemented with galactose (18 mM), L-glutamine (2 mM), and tetracycline (1 µg/mL). One hour after replating, the cells were treated with a 10× concentrated stock solution of the test compound. Neurite outgrowth and viability were determined 24 h later, using automated high content imaging.”"}},
  "note": "Read-outs that look alike come from different tables or passages of the source.",
  "data": [
    {"compound": "O=[N+]([O-])c1cc([N+](=O)[O-])c(Nc2c(Br)cc(Br)cc2Br)c(C(F)(F)F)c1", "note": "[Desmethyl-bromethalin]", "values": [
      {"measurement": "neurite area, metabolite compared to parent at equimolar concentrations", "setting": "LUHMES cells [1]; 40 nM, calcein-stained LUHMES cells", "value": "clear reduction in the neurite area"},
      {"measurement": "IC25", "setting": "LUHMES cells [1]", "value": 0.014, "unit": "µM"},
      {"measurement": "fold change between BMC25 values of parent and metabolite (potency ratio, parent divided by metabolite)", "setting": "LUHMES cells [1]; listed under the metabolite, >1 = metabolite more potent", "value": 57, "unit": "fold"},
      {"measurement": "parent/metabolite potency ratio (BMC25)", "setting": "[2]", "value": 3},
      {"measurement": "increase in potency of metabolite compared to parent (BMC25 ratio)", "setting": "[3]", "value": 44, "unit": "fold"}
    ]},
    {"compound": "O=C(c1ccccc1)c1ccccc1", "note": "[Benzophenone]", "values": [
      {"measurement": "IC25", "setting": "LUHMES cells [1]; Homo sapiens", "value": "> 500", "unit": "µM"},
      {"measurement": "effect on peripheral neurite outgrowth", "setting": "[2]; result in words", "value": "neither benzophenone nor its hydroxy metabolite showed any significant effect"}
    ]},
    {"compound": "COC(=O)Nc1nc2ccccc2[nH]1", "note": "[Carbendazim]", "values": [
      {"measurement": "IC25", "setting": "LUHMES cells [1]; Homo sapiens", "value": 4.8, "unit": "µM"},
      {"measurement": "parent/metabolite potency ratio (BMC25)", "setting": "[2]", "value": 0.2}
    ]},
    {"compound": "COc1ccc2cc3[n+](cc2c1OC)CCc1cc2c(cc1-3)OCO2", "note": "[Berberine]", "values": [
      {"measurement": "fold change between EC25 values of NADPH-(in)dependent metabolite mixtures (detoxification)", "setting": "LUHMES cells [4]", "value": 5, "unit": "x"},
      {"measurement": "effect of metabolisation in the presence of NADPH on toxicity", "setting": "LUHMES cells [4]; result in words", "value": "reduced"}
    ]},
    {"compound": "O=P1(N(CCCl)CCCl)NCCCO1", "note": "(stereo not shown) [Cyclophosphamide]", "values": [
      {"measurement": "inhibition of neurite outgrowth without preincubation", "setting": "LUHMES cells [4]; 100 µM, 50 µg/mL S9, no preincubation", "value": "No inhibition of neurite outgrowth"},
      {"measurement": "reduction of neurite outgrowth", "setting": "LUHMES cells [4]; 100 µM, 50 µg/mL S9, with NADPH, 2 h preincubation", "value": "approximately 90%"},
      {"measurement": "neurite toxicity at low S9 concentrations", "setting": "LUHMES cells [4]; 100 µM, S9 <10 µg/mL, 2 h incubation", "value": "did not lead to neurite toxicity"},
      {"measurement": "fold change between EC25 values of NADPH-independent and NADPH-dependent metabolite mixtures (toxification)", "setting": "LUHMES cells [4]; rat liver S9 50 µg/mL in testing module, 2 h preincubation, RFP-LUHMES, toxicity increased with NADPH", "value": "> 25", "unit": "x"}
    ]},
    {"compound": "O=P1(NCCCl)OCCCN1CCCl", "note": "(stereo not shown) [Ifosfamide]", "values": [
      {"measurement": "fold change between EC25 values of NADPH-independent and NADPH-dependent metabolite mixtures (toxification)", "setting": "LUHMES cells [4]", "value": "> 10", "unit": "x"}
    ]}
  ]
}
